Measurements taken from patent US20230285557A1, “MULTI-PARALLEL ANALYSIS OF T-CELL THERAPIES” (The Board of Trustees of the Leland Stanford Junior …, priority 2020, published 2023).

Tests used:
[1] = test system: T memory stem cells; conditions: previously reported; by altering acetyl-Coenzyme A levels; cited from earlier work
[2] = test system: PMEL CD8^+ T cells; assay: CyTOF phenotyping of ex vivo expanded PMEL T cells stimulated with or without 2HC; assay type: cell-based, murine; conditions: 5 mM 2HC during ex vivo expansion, vs untreated cells (effector and exhausted phenotype)
Source text: This Example describes experiments performed to apply the CyTOF technology to a comprehensively capture the phenotypic space of T cells. As described below, an in-depth understanding of the phenotype of differentially activated tumor-specific T cells can be achieved by using a CyTOF technique. […] Also used in these experiments was a palladium-based mass tag cell barcoding technique that enabled simultaneous analysis and pooling of 20 samples at a time, which allowed efficient multiplexing and reducing batch effects.
Generally, cells were suspended in supplemented media: complete RPMI 1640 media (with glutamine) with 1× non-essential amino acids, 1 mM sodium pyruvate, 0.4× vitamin solution, 92 µM 2-mercaptoethanol, 10 µM ciprofloxacin, 10% fetal bovine serum (FBS), and 50 IU/ml IL-2. At Day 0, splenocytes were used at a concentration of 2×10^6/ml, 100 µL /well in 96 well plate u-bottom. The cultures were started with 100×10^6 cells per condition, in 50 mL T cell media containing 60 IU/mL IL-2, 10 µg/mL GP100, and 5 mM 2HC (85 mg). At Day 3, the cell culture was fed with 50 µL media containing 120 IU/mL IL-2 and 5 mM 2HC. At Day 4, the cell culture was fed with 80 µL media containing 120 IU/mL IL-2 and 5 mM 2HC. […]
On Day 9, cells were counted and harvested into FACS tubes for CyTOF analysis using a panel of CYTOF biomarkers (see, e.g., FIG. 1 and Table 1). […]

O=C([O-])CC(O)(C(=O)[O-])C(O)C(=O)[O-].[K+].[K+].[K+] (centres unmarked) [2HC, tripotassium 2-hydroxycitrate]
generation of T memory stem cells [1]: increases the generation of T memory stem cells | shift of T cell phenotype on incubation with inhibitor of acetyl-CoA production [2]: drastically shifted T cells towards a more memory like phenotype
